Test results from patent publication US8008074B2, “Compositions and methods for improving bone mass through modulation of receptors of PTH and fragments thereof” (The UAB Research Foundation, priority 2006, dated 2011).
Entries after “also recorded” stand apart in the source; their conditions may differ.

Legend:
Format in all cases: cell-based
[1] = test system: Wnt responsive luciferase reporter (TCF4-Luc); test: TCF4-Luc luciferase reporter assay in UMR 106 cells; details: for TCF luciferase activity: 5×10^−7 M of indicated PTH ligands for 12 hours
β-catenin = β-catenin stabilization, Western blot of UMR 106 cell fractions; details: UMR 106 cells; for inhibition of PTH-induced β-catenin stabilization: inhibitor 30 minutes before 10^−7 M PTH (1-84) for 1 hour, cytosolic fraction
LRP6/Axin binding = test: Axin-LRP6 binding immunoprecipitation assay; details: for inhibition of PTH-induced binding of Axin to LRP6: pre-treatment 30 minutes, then PTH (1-84) for 1 hour; for Axin-LRP6 binding: HEK 293 cells cotransfected with LRP6, Axin and GSK3β, ligand for 1 hour
Axin = Axin protein levels; details: cells overexpressing LRP6
Text: Binding of Axin to phosphorylated LRP6 leads to rapid degradation. Then inhibition of Axin/LRP6 binding should […] degradation of Axin. Indeed, Axin degradation is reduced by both inhibitors (data not shown). […] PKA and PKC also were examined to determine whether they regulate PTH-induced PTH1R/LRP6 complex formation. […] Apparently, the receptor complex formation is independent of activation of PKA and PKC. Instead, it seems that activation of G protein-mediated PKA and PKC signaling is in parallel with the recruitment of LRP5/6 in PTH signaling. PKA and PKC activity is required for LRP5/6 phosphorylation and Axin/LRP6 binding.
Wnts induce binding of Axin to phosphorylated LRP6, and the membrane-bound Axin undergoes rapid protein dephosphorylation and degradation, which eventually leads to β-catenin stabilization Willert et al., 1999; Yamamoto et al., 1999).

PTH1R/LRP5/6 complex = biological target: T1, PTH1R/LRP5/6 complex (Rattus norvegicus, UniProt P25961); test: Co-immunoprecipitation of endogenous PTH1R with LRP5/6 in UMR-106 cells; details: 5×10^−7 M PTH (1-84)
T1 construct: endogenous in cells; host or cells: UMR-106
T1 sequence (P25961 27-591): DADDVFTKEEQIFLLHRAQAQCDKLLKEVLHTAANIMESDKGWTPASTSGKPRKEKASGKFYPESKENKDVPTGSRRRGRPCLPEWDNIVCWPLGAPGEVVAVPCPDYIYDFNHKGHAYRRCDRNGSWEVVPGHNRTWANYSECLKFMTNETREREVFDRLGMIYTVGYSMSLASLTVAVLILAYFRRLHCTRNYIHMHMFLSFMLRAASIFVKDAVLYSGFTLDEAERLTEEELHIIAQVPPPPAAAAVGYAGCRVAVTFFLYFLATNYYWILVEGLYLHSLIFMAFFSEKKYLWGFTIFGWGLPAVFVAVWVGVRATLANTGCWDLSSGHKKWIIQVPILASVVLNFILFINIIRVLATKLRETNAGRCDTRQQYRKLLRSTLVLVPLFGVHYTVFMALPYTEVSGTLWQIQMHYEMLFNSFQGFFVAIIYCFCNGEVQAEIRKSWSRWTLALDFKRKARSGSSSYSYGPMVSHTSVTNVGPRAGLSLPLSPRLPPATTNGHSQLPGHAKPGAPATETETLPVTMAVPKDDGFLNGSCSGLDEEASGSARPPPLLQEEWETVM
Method: Endogenous LRP5 or LRP6 was coimmunoprecipitated with PTH1R in UMR 106 cells. UMR 106 cells were treated with 5×10^−7 M PTH (1-84) for indicated times. […] VSVG-tagged LRP6 was cotransfected into HEK 293 cells with HA-PTH1R, and the cells were treated with 5×10^−7 M PTH (1-84) for 1 hour. The LRP6-associated PTH ligand was determined by Western blotting of the anti-VSVG immunoprecipitates. […] VSVG-tagged LRP6, LRP6N, or LRP6C was cotransfected into HEK 293 cells with HA-PTH1R, and the cells were treated with or without 5×10^−7 M PTH (1-84) for 1 hour. The PTH1R-associated LRP6, LRP6N, or LRP6C was determined by Western blotting of the anti-HA immunoprecipitates, and the LRP6-, LRP6N- or LRP6C-associated PTH1R and PTH ligand was determined by Western blotting with an anti-VSVG antibody. […] The PTH1R-associated LRP6 was determined by Western blotting. […] The effect of LRP-6N on PTH-induced TCF4 activation was determined by luciferase assays.
To determine if PTH (1-84) induced the formation of a complex of endogenous PTH1R with LRP5/6, an immunoprecipitation assay in osteoblastic UMR-106 cells was used. […] The cell lysates isolated from transfected cells treated with or without PTH were subjected to immunoprecipitation with anti-PTH1R antibodies, and the immunocomplex was detected by Western blotting with a monoclonal antibody that recognizes both LRP5 and LRP6. […]

[2] = test system: TGF-β-induced transcription activity; test: Smad binding response luciferase reporter (SBE-luc) in 293 cells; details: TGF-β 2 ng/ml, 50 nM
Method: A Smad binding response luciferase reporter (SBE-luc) was transfected into 293 cells. TGF-β (2 ng/ml) was added in combination with different doses of PTH (1-34) or cPTH (39-84). Twenty-four hours after transfection, the cells were lysed and the luciferase signal was detected. Luciferase values shown in the figures are representative of transfection experiments performed in triplicate in at least three independent experiments. The relative increased fold of the luciferase activity stimulated by TGF-β in each cell line was calculated.
A Smad binding response luciferase reporter (SBE-luc) was introduced into the multi-cloning site of pcDNA3 (Invitrogen), and the resulting vector was transfected into 293 cells using Lipofectamine Plus reagent (Invitrogen, Cat. No. 10964-013). TGF-β (2 ng/ml) was added in combination with different doses of PTH (1-34) (50 nM) or cPTH (39-84) (50 nM). […] Forty-two hours after transfection, the cells were lysed, and the luciferase signal was detected using the Dual Luciferase assay kit (Promega) according to the manufacturer's instructions.
Luciferase values shown in the figures are representative of transfection experiments performed in triplicate in at least three independent experiments. The relative increased fold of the luciferase activity stimulated by TGF-β in each cell line was calculated.

Molecule | Axin-LRP6 binding (LRP6/Axin binding) | inhibition of PTH-stimulated TCF4-luciferase reporter activity [1] | inhibition of PTH-induced β-catenin stabilization (β-catenin) | inhibition of PTH-induced binding of Axin to LRP6 (LRP6/Axin binding) | Axin protein levels (Axin) | TCF luciferase activity [1] | further results
O=S(=O)(NCCNC/C=C/c1ccc(Br)cc1)c1cccc2cnccc12 [H89] |  | inhibited activity from a TCF4-luciferase reporter | inhibit PTH-induced β-catenin stabilization | inhibit the binding of Axin with LRP6 |  |  | 
Calphostin C |  | inhibited activity from a TCF4-luciferase reporter | less effective; also recorded: inhibit PTH-induced β-catenin stabilization | much weaker; also recorded: inhibit the binding of Axin with LRP6 |  |  | 
cPTH (39-84): C-terminal fragment of PTH, amino acids 39-84 (APLAPRDAGSQRPRKKEDNVLVESHEKSLGEADKADVNVLTKAKSQ; Parathyroid hormone; UniProt P01270 70-115, looked up, fragment) |  |  |  |  |  | only a marginal increase | effect on TGF-β-induced transcription activity (SBE-luc) [2]: inhibited TGF-β-induced transcription activity

Continued, in another order:

Axin-LRP6 binding (LRP6/Axin binding) | Molecule | inhibition of PTH-stimulated TCF4-luciferase reporter activity [1] | inhibition of PTH-induced β-catenin stabilization (β-catenin) | inhibition of PTH-induced binding of Axin to LRP6 (LRP6/Axin binding) | Axin protein levels (Axin) | TCF luciferase activity [1] | further results
did not | PTH 79-84: C-terminal PTH ligand as printed; possibly misprint of 39-84 (TKAKSQ; Parathyroid hormone; UniProt P01270 110-115, looked up, fragment) |  |  |  | did not affect Axin level |  | 
induces LRP6/Axin binding | PTH (1-84): Full-length PTH or PTH ligand, 84 amino acids long, represented as 1-84 |  |  |  | further downregulated Axin protein levels | significantly elevated | activation of TCF4-Luc reporter ([1]; 10^−7M PTH (1-84), 12 hours): activates the Wnt signaling pathway; β-catenin levels in cytosolic and nuclear fractions (β-catenin; 5×10^−7 M PTH (1-84), 30 minutes): stimulated the levels of β-catenin in both the cytoplasm and the nucleus; interaction between endogenous LRP5/6 and PTH1R (PTH1R/LRP5/6 complex): induced the interaction between endogenous LRP5/6 and PTH1R in a time dependent manner; time of peak of PTH-induced LRP5/6-PTH1R interaction (PTH1R/LRP5/6 complex): 1 h; Axin-LRP6 binding (LRP6/Axin binding; listed as PTH1-84): stimulated Axin-LRP6 binding
stimulated Axin-LRP6 binding | PTHrP 1-40: PTHrP fragment 1-40 tested beside PTH ligands |  |  |  | further downregulated Axin protein levels | significantly elevated | 
